Reference: article PMC7853623, “Dose- and time-dependent tolerability and efficacy of organo-osmium complex FY26 and its tissue pharmacokinetics in hepatocarcinoma-bearing mice” (Metallomics: Integrated Biometal Science, 2020)

Key:
A2780 cells = test: Apoptosis and ROS induction on exposure in A2780 cells; format: cell-based; conditions: data not shown
[1] = Comparative maximum aqueous solubility study (ICP-OES); format: physicochemical; conditions: doubly deionized water, 24 h shaking, ambient 18–20°C, mean ± SD of N = 3
Protocol: One to five milligrams of FY26⋅PF6 or FY26⋅I, and 180 mg of FY26⋅Cl were dispensed into Falcon tubes in triplicates, then 1 ml of doubly deionized water (DDIW) was added. The Falcon tubes were placed on a Vibrax VXB basic shaker (Sigma-Aldrich, Dorset, UK) for 24 h at a speed of […] (ambient temperature 18–20°C), and were checked at intervals (further solids were added if total saturation appeared to occur). The samples were filtered through syringe filters (PTFE, 0.45 µm, 4 mm) to remove any undissolved solids. The concentrations of Os in the solutions were measured using inductively coupled plasma-optical emission spectroscopy (ICP-OES) (Agilent, Stockport, UK).
Analyses of FY26 solutions were carried out on a Perkin-Elmer (optical emission spectrometer) Optima 5300 DV instrument. All samples and standards were prepared fresh on the day in DDIW with distilled HNO3 (3.2%), thiourea (5 mM), and ascorbic acid (0.1 g/l). The osmium standard was diluted to the following concentrations for the calibration curve: 0, 25, 50, 100, 200, 400, 600, 800, and 1000 ppb. The samples were diluted by serial dilutions of typically 1 in 10 until their concentrations fitted within the calibration range and % total dissolved solids were below 0.2%. Samples were prepared in triplicates and the Os optical emissions at 228.226 and 225.585 nm were detected and integrated.

[2] = tested on: Hepa1–6-Per2-luc hepatocarcinoma tumours; test: Antitumour efficacy in Hepa1–6-bearing C57Bl/6 mice (Experiments 3 and 4); format: in vivo; conditions: for percentage tumour inhibition relative to control: Experiment 4, end
Protocol: Male CD1-Foxn1^nu or C57Bl/6 (B6) mice aged 5–10 weeks (Janvier, Le Genest St Isle, France) were housed in groups of three to four mice per cage in temperature-controlled (23 ± 1°C), ventilated (100 ± 10 l/min), and light-tight chronobiological animal facilities (Eurobioconcept, Bonneuil s/Marne, France). They were synchronized with an alternation of 12 h of light (L) and 12 h of darkness (D) (LD12:12), with light starting at 07:00, and had ad libitum access to food and water throughout all the experiments. In line with convention, onset of light and that of darkness are referred to as Zeitgeber time 0 (ZT0) and ZT12, respectively. After one or more weeks on this regimen and on the day prior to tumour inoculation, both flanks of each B6 mouse were shaved using clippers.
Mouse hepatocarcinoma (Hepa1–6, ATCC® CRL-1830™) was kindly provided by S. Dulong (INSERM U935, Villejuif, France), following their stable transfection with the Per2-luc [pLV7-Bsd-P(Per2)-dLuc] reporter constructs within the C5SYS ERASYSBIO+ project (FP7). Mouse Hepa1–6-Per2-luc cells were cultured in 15-cm Petri dishes until they reached 80% confluency. On the day of tumour inoculation, the cells were trypsinized and resuspended at a concentration of 10^6 cells/100 µl in PBS solution alone (Experiments 1 and 2) or with 1:1 MatriGel™ (Corning, Flintshire, UK) (Experiments 3–5) and kept on ice until injected.
The mice, aged 8–10 weeks, were anesthetized under isoflurane and Hepa1–6-Per2-luc cells were injected subcutaneously in both postero-lateral flanks of each mouse. Mice were then inspected and weighed daily until experiment completion. Tumour sites were inspected daily until tumours became palpable and amenable to daily measurements of perpendicular diameters using callipers. Measurements were always taken at the same circadian time.
Mean daily tumour weight per mouse was calculated as the average volume of the right and left flank tumours according to (L × W^2)/2, where L is the larger and W the smaller perpendicular diameter, and 1 cm^3 corresponds to 1 g. Mice with an estimated tumour weight exceeding 10% of their body weight or those in poor general condition or loosing >15% of their starting body weight were euthanized, in compliance with our Home Office Project Licence specifications approved by the Animals in Science Committee and Animal Welfare and Ethical Review Body.
Experiment 3 aimed at assessing the efficacy and tolerability of the more soluble formulation of FY26⋅Cl in Hepa1–6-bearing C57Bl/6 mice. The mice were randomized to receive vehicle or FY26⋅Cl, at a cumulative dose of 60 mg/kg. Treated mice received ip injections of 20 mg/kg of FY26⋅Cl at ZT6 12, 14, and 17 days after tumour inoculation. Control mice received ip vehicle on the same days.
Experiment 4 aimed at confirming efficacy and optimizing timing and scheduling of the same cumulative dose of 60 mg/kg of FY26⋅Cl. Mice were randomized to receive either vehicle or FY26⋅Cl as four injections of 15 mg/kg at ZT6 or ZT18 on days 11, 14, 17, and 21.
For Experiments 1 and 2, FY26⋅PF6 was diluted in the vehicle, composed of 1% Tween 80 (Sigma-Aldrich, Gillingham, UK), 5% DMSO (Corning, New York, USA) and 94% of 0.9% saline (Prep room, Life Sciences, University of Warwick) under laminar flow. FY26⋅PF6 concentration was confirmed with ICP-MS. For Experiments 3–5, using FY26⋅Cl, a stock solution of 50 mg/ml FY26⋅Cl was prepared in 0.9% saline on the day of injection and diluted as required; the vehicle consisted of 0.9% saline.
Body weight data were expressed as % body weight measured on the first treatment day. Tumour weights for individually treated mice were expressed as % of the median control values, in order to determine % inhibition. Mean and standard error or median and interquartiles were computed for the different treatment groups and experimental conditions, i.e. drug timing and day of assessment. Groups were compared using parametric or non-parametric ANOVAs, respectively.

With `CN(C)c1ccc(N=Nc2ccccn2)cc1.Cc1ccc(C(C)C)cc1.[Cl-].[I-].[Os+2]` [FY26⋅Cl] the ROS induction (A2780 cells) was “did induce an increase in ROS”, the induction of apoptosis (A2780 cells) was “did not induce apoptosis” and the maximum aqueous solubility [1] was 215 (±10) mM. The “median percentage tumour inhibition relative to controls” value ([2]; Experiment 3, at completion, 20 mg/kg ip × 3 at ZT6) was 76.5%, the “median tumour weight, treatment group” value ([2]; Experiment 3, day 20, 20 mg/kg ip × 3 at ZT6 (control 128.8 mg)) was 30.2 mg and the “median percentage tumour inhibition relative to controls” value ([2]; Experiment 4, at completion, 15 mg/kg ip × 4, irrespective of dosing time) was 42.6%. For the same molecule, the “median tumour weight, treatment groups ZT6 and ZT18” value ([2]; Experiment 4, day 23, 15 mg/kg ip × 4 (control 213.2 mg)) was 122.3 mg, the “percentage tumour inhibition relative to control” value ([2]; 15 mg/kg ip × 4 at ZT6) was 12.5% and the “percentage tumour inhibition relative to control” value ([2]; 15 mg/kg ip × 4 at ZT18) was 66%. For the same molecule, the “tumour inhibition as compared to controls” value ([2]; hepatocarcinoma-bearing mice, overall statement in discussion) was ~60%.
